From patent US20160038449A1, “MULTI-COMPONENT PHARMACEUTICALS FOR TREATING DIABETES” (Complexa, Inc., priority 2010, published 2016)

Experiments:
WT mice [1] = experiment: Insulin sensitivity: blood glucose after administration of insulin in WT mice; format: in vivo; conditions: 120 minute time course (FIG. 5)
ob/ob mice [2] = experiment: Blood glucose level of ob/ob mice after administration; format: in vivo; conditions: ob/ob mice (FIG. 2)
Source text: Similar results are observed in experiments involving ob/ob mice.

ob/ob mice [3] = experiment: Insulin sensitivity: blood glucose after administration of insulin in ob/ob mice; format: in vivo; conditions: 120 minute time course (FIG. 6)
[4] = parameters: species or system mice; conditions: mouse, in vivo
Method: In addition to reducing blood glucose levels, substantially no increase in body weight was observed when nitro-oleic acid is administered to mice as compared to mice administered a vehicle control, oleic acid, or rosiglitazone.

WT mice [5] = experiment: Blood glucose level of fed WT mice after administration; format: in vivo; conditions: for blood glucose level: fed WT mice, level maintained over the study (FIG. 1), vehicle control about 170 mg/dL
Method: Oleic acid, nitro-oleic acid, rosiglitazone, or a vehicle control were administered to fed WT mice, and the blood glucose level of these mice was monitored.

Compound | blood glucose levels after administration of insulin (WT mice [1]) | change of blood glucose level over the course of the study (ob/ob mice [2]) | blood glucose levels after administration of insulin (ob/ob mice [3]) | change of body weight over the course of the study [4] | blood glucose level (WT mice [5]) | change of blood glucose level over the course of the study (WT mice [5]; fed WT mice (FIG. 1))
9- or 10-nitro octadecenoic acid [nitro-oleic acid] | initial drop in blood glucose levels after administration of insulin followed by an increase in blood glucose back to normal levels about 120 minutes after the administration of insulin | effectively reduced the blood glucose level over the course of the study | substantial decrease in blood glucose levels over the course of the 120 minute time period | initially decreased (days 0-10), and then remained substantially constant over the second half of the study | about 125 mg/dL | 
CCCCCCCC/C=C\CCCCCCCC(=O)O [oleic acid] |  | increased blood glucose level over the course of the study | increased over the 120 minute time course | steady increase in body weight over the course of the study |  | increased blood glucose levels over the course of the study
CN(CCOc1ccc(CC2SC(=O)NC2=O)cc1)c1ccccn1 (centres unmarked) [rosiglitazone] |  |  |  | steady increase in body weight over the course of the study | about 150 mg/dL | 
